Experimental data reported in patent US10213451B2, “Methods and compounds for modulating the secretion or expression of adhesion proteins or angiopoietins of cells” (PACIFIC ARROW LIMITED, priority 2004, dated 2019).

Legend:
Type in all cases: cell-based, human
[1] = system: laminin expression in ES2 cells; assay: Microarray gene expression, Table 3; settings: for LAMC1, gene expression ratio to no drug control (D): probe 200770_s_at; for LAMB1 laminin, beta 1, gene expression ratio to no drug control (D): probe 201505_at; for LAMA4 laminin, alpha 4, gene expression ratio to no drug control (D): probe 202202_s_at; for LAMB1, gene expression ratio to no drug control (D): probe 211651_s_at; for LAMB2, gene expression ratio to no drug control (D): probe 216264_s_at
Method: (§1) Y/D is the ratio (in folds) of gene expression in cells treated with compound Y as compared with those of the no drug control (D),
(§2) YM/D is the ratio of gene expression in cells treated with compound YM (ACH-Y, Y without sugar moiety) compared with those of the no drug control (D)
(§3) Cell culture and drug-treatment.: ES2 cells were seeded in a T-25 flask with 4.5 million cells per flask for 24 hours. Cell culture was replaced with fresh medium with xanifolia-Y (Y) or DMSO no drug control (D) for 24 hours. Cells were then harvested for RNA isolation. Three experiments were done.
(§4) RNA extraction, labeling, hybridization, and data analysis. RNA was extracted from tumor cells using the Qiagen RNeasy Kit. RNA quality and quantity was checked by the Agilent BioAnalyzer and the NanoDrop® ND-1000 spectrophotometer respectively before further manipulation. The first and second cDNA strands were synthesized from 20 ng of total RNA using the Affymetrix T7 oligo(dT) primer protocol and kit for the two-cycle amplification. To produce amplified biotin-labeled-cRNA, the cDNA was […] by in vitro transcription using the MegaScript kit from Ambion. 15.0 μg of the labeled cRNA was fragmented and re-checked for concentration using the NanoDrop® ND-1000 spectrophotometer. A hybridization cocktail containing Affymetrix spike-in controls and fragmented labeled cRNA was loaded onto the Human U133 Plus 2.0 GeneChip® oligonucleotide array. The Affymetrix array (Affymetrix, Inc. Santa Clara, Calif.) is comprised of over 1,300,000 unique oligonucleotide features that represent greater than 38,500 well-substantiated human genes. The array was hybridized for 16 hours at 45° C. with rotation at 60 rpm then washed and stained with a strepavidin, R-phycoerythrin conjugate stain on the Affymetrix Fluidicis Station 450. Signal amplification was done using biotinylated antistreptavidin. The arrays were scanned using the GeneChip® 3000 confocal laser scanner with autoloader. The images were analyzed and quality control metrics recorded using Affymetrix GCOS software version 1.4. Lastly, the expression value for each gene was calculated using dChip PM-only model based or Plier algorithm.
(§5) Pairwise comparisons were made as follows: Treated vs. Control (Y vs. D), Modified Drug vs Control (YM/ACY-H vs. D) and Treated vs. Modified Drug (Y vs. YM/ACH-Y) Cel files analyzed using the Bioconductor package of R Statistical programming. Limma analysis generated a reasonable number of changing genes between the samples.
(§6) The raw data in the .CEL files were normalized by the GCRMA method (robust multi-array analysis). It is implemented in Bioconductor (http://www.bioconductor.org/). The raw signal intensity data were normalized, background corrected and summarized based on certain statistical models, and an expression value, in log 2-scale, is obtained per chip per probe set. Then the null hypothesis was tested that there's no significant changes in gene expression between the treatment pairs. This was done by LIMMA and is also implemented in Bioconductor. It uses empirical Bayes method to estimate the variance in gene expression. One comparison was made, namely, High Grade vs. Low Grade. The raw p-values were adjusted by the Benjamnin-Hochberg method for false discovery rate (FDR) control. All data sets contained a significant number of genes with a p-value less than 0.05, which is that the probability that a gene is NOT differential expressed (false positive) is 1:20.

[2] = system: integrin expression in ES2 cells; assay: Microarray gene expression, Table 6; settings: for ITGA3 integrin, alpha 3, gene expression ratio to no drug control (D): probe 201474_s_at; for ITGAV integrin, alpha V (vitronectin receptor), gene expression ratio to no drug control (D): probe 202351_at; for ITGB5 Integrin, beta 5, gene expression ratio to no drug control (D): probe 214021_x_at; for CD47 antigen (integrin-associated signal transducer), gene expression ratio to no drug control (D): probe 227259_at; for ITGB2 integrin, beta 2, gene expression ratio to no drug control (D): probe 1555349_a_at; for expression ratio to the control, integrin family: span over probes of Table 6
Method: as §1, §2, §3, §4, §5, §6

[3] = system: angiopoietin expression in ES2 cells; assay: Microarray gene expression, Table 12; settings: for ANGPT1 angiopoietin 1, gene expression ratio to no drug control (D): probe 205609_at; for ANGPTL4 angiopoietin-like 4, gene expression ratio to no drug control (D): probe 221009_s_at; for ANGPTL1 Angiopoietin-like 1, gene expression ratio to no drug control (D): probe 227533_at
Method: as §1, §2, §3, §4, §5, §6

[4] = system: thrombospondin in ES2 cells; assay: Microarray gene expression, Table 15
Method: as §1, §2, §3, §4, §5, §6

[5] = system: Fibronectin secretion from liver HepG2 cells; assay: Fibronectin secretion (Western blot), HepG2 cells
[6] = system: Fibronectin secretion from brain glioblastoma T98G cells; assay: Fibronectin secretion (Western blot), T98G cells; settings: for inhibition at 20 µg/mL: 20 ug/ml

SMILES | LAMB1 laminin, beta 1, gene expression ratio to no drug control (D) [1] [folds] | LAMA4 laminin, alpha 4, gene expression ratio to no drug control (D) [1] [folds] | LAMB1, gene expression ratio to no drug control (D) [1] [folds] | LAMB2, gene expression ratio to no drug control (D) [1] [folds] | ITGA3 integrin, alpha 3, gene expression ratio to no drug control (D) [2] [folds] | ITGA6 integrin, alpha 6, gene expression ratio to no drug control (D) ([2]; probe 201656_at) [folds] | ITGAV integrin, alpha V (vitronectin receptor), gene expression ratio to no drug control (D) [2] [folds] | ITGBL1 Integrin, beta-like 1, gene expression ratio to no drug control (D) ([2]; probe 205422_s_at) [folds] | ITGA4 integrin, alpha 4, gene expression ratio to no drug control (D) ([2]; probe 205884_at) [folds] | ITGA4 integrin, alpha 4, gene expression ratio to no drug control (D) ([2]; probe 205885_s_at) [folds] | ITGA4 integrin, alpha 4, gene expression ratio to no drug control (D) ([2]; probe 213416_at) [folds] | ITGB5 Integrin, beta 5, gene expression ratio to no drug control (D) [2] [folds] | ITGBL1 Integrin, beta-like 1, gene expression ratio to no drug control (D) ([2]; probe 214927_at) [folds] | ITGA6 integrin, alpha 6, gene expression ratio to no drug control (D) ([2]; probe 215177_s_at) [folds] | CD47 antigen (integrin-associated signal transducer), gene expression ratio to no drug control (D) [2] [folds] | ITGB2 integrin, beta 2, gene expression ratio to no drug control (D) [2] [folds] | ITGBL1 Integrin, beta-like 1, gene expression ratio to no drug control (D) ([2]; probe 1557080_s_at) [folds] | expression ratio to the control, integrin family [2] [folds] | ANGPT2 angiopoietin 2, gene expression ratio to no drug control (D) ([3]; probe 205572_at) [folds] | ANGPT1 angiopoietin 1, gene expression ratio to no drug control (D) [3] [folds] | other results
C/C=C(/C)C(=O)O[C@H]1[C@H](OC(=O)/C(C)=C\C)[C@@]2(CO)C(CC1(C)C)C1=CCC3[C@@]4(C)CC[C@H](O)C(C)(C)C4CC[C@@]3(C)[C@]1(C)[C@@H](O)[C@H]2O (some centres unmarked) [ACH-Y] | −2.0 | −2.0 | −1.7 | −2.0 | −1.5 | −1.1 | −1.3 | −2.0 | −1.7 | −2.0 | −1.7 | −2.2 | −1.8 | 1.1 | −1.1 | −1.4 | −2.5 | −1.1 to −2.5 | 1.4 | −1.2 | LAMC1, gene expression ratio to no drug control (D) ([1]; listed as YM): −1.1 folds; LAMC1, gene expression ratio to no drug control (D) ([1]; listed as YM/ACH-Y): 1.1 folds; ANGPT2 angiopoietin 2, gene expression ratio to no drug control (D) ([3]; probe 211148_s_at): 1.4 folds; ANGPTL4 angiopoietin-like 4, gene expression ratio to no drug control (D) [3]: −1.4 folds; ANGPTL1 Angiopoietin-like 1, gene expression ratio to no drug control (D) [3]: −2.3 folds; THBS1 thrombospondin 1, gene expression ratio to no drug control (D) ([4]; probe 201108_s_at): −2.2 folds; THBS1 thrombospondin 1, gene expression ratio to no drug control (D) ([4]; probe 201109_s_at): −6.2 folds; THBS1 thrombospondin 1, gene expression ratio to no drug control (D) ([4]; probe 201110_s_at): −4.5 folds; inhibition at 30 µg/mL ([5]; Homo sapiens, HepG2, HepG2 cells, 30 ug/ml): 21%; inhibition at 20 µg/mL ([6]; Homo sapiens, T98G): 30%
C/C=C(/C)C(=O)O[C@H]1[C@H](OC(=O)/C(C)=C\C)[C@@]2(CO)C(CC1(C)C)C1=CCC3[C@@]4(C)CC[C@H](O[C@@H]5OC(C(=O)O)[C@@H](O)C(O[C@@H]6O[C@@H](CO)C(O)C6O)C5O[C@@H]5OC(CO)[C@H](O)C(O)C5O)C(C)(C)C4CC[C@@]3(C)[C@]1(C)[C@@H](O)[C@H]2O (stereo partly drawn) [Xanifolia-Y, 3-O-[β-D-galactopyranosyl (1→2)]-α-L-arabinofuranosy (1→3)-β-D-glucuronopyranosyl-21,22-O-diangeloyl-3β, 15α, 16α, 21β, 22α, 28-hexahydroxyolean-12-ene] | −1.6 | −2.2 | −1.6 | −2.0 | −1.6 | −1.5 | −1.8 | −1.9 | −1.6 | −1.7 | −1.6 | −1.5 | −1.7 | −1.6 | −1.6 | −1.6 | −1.7 | −1.5 to −1.9 | 3.5 | −1.1 | LAMC1, gene expression ratio to no drug control (D) [1]: −1.9 folds; ANGPT2 angiopoietin 2, gene expression ratio to no drug control (D) ([3]; probe 211148_s_at): 2.5 folds; ANGPTL4 angiopoietin-like 4, gene expression ratio to no drug control (D) [3]: −1.2 folds; ANGPTL1 Angiopoietin-like 1, gene expression ratio to no drug control (D) [3]: −1.5 folds; THBS1 thrombospondin 1, gene expression ratio to no drug control (D) ([4]; probe 201108_s_at): −1.7 folds; THBS1 thrombospondin 1, gene expression ratio to no drug control (D) ([4]; probe 201109_s_at): −2.0 folds; THBS1 thrombospondin 1, gene expression ratio to no drug control (D) ([4]; probe 201110_s_at): −1.8 folds; % inhibition of Fibronectin secretion ([5]; HepG2 cells, 10 ug/ml): 48%; inhibition at 10 µg/mL ([5]; Homo sapiens, HepG2, HepG2 cells, 10 ug/ml): 42%; % inhibition of Fibronectin secretion ([6]; 10 ug/ml, listed as Y3): 26%; inhibition at 10 µg/mL ([6]; Homo sapiens, T98G, 10 ug/ml): 27%; inhibition at 20 µg/mL ([6]; Homo sapiens, T98G): 74%
